From patent US7772255B2, “Method of treating tumors with azaxanthones” (Supratek Pharma, Inc., priority 2005, dated 2010)

Experiments:
[1] = system: metastatic (Stage III-Stage IV) breast cancer; test: Amlexanox monotherapy in advanced metastatic breast cancer resistant to prior chemotherapy (Example 8); format: in vivo, human; conditions: 500 mg orally twice daily; baseline until nine months after administration and follow up
Description: In this study 44 women patients with metastatic (Stage III-Stage IV) breast cancer who have relapsed following prior cytotoxic chemotherapy regiments containing anthracyclines and/or taxanes are treated by administering 500 mg amlexanox twice daily with two amlexanox 250 mg tablets prepared in Example 3 taken twice daily orally as outpatients. This treatment is carried out for determining the overall (complete and partial) response rate. In this group, the stable disease rate of patients treated with amlexanox is determined. In addition, in each of the treated patients, the time to disease progression is also determined. The results of this study are compared to untreated patients with metastatic (Stage III-Stage IV) breast cancer who have relapsed following the same prior cytotoxic chemotherapy regiment. […] The patients are evaluated by standard WHO and/or RECIST criteria for response and disease status at six week intervals. […] All of the patients during the evaluation period are evaluated by the measurement of the tumors, survival and determination of any progression of the disease in the patient. Stability is measured during each evaluation to determine if there is any increase in the size and amount of tumors from the proceeding period and if there is no subsequent appearance of any other malignancies in the patient. […]

colorectal cancer = test: Amlexanox in combination with irinotecan in colorectal cancer, first-line (Example 9); format: in vivo, human; conditions: amlexanox tablets orally plus irinotecan 350 mg/m^2 i.v. every 3 weeks, versus irinotecan alone
Description: In this open label randomized multicenter study 150 patients with colorectal cancer who have tumors that cannot be completely removed by surgery are treated by administering irinotecan alone and 150 patients, with colorectal cancer who have tumors that cannot be completely removed by surgery, are treated with combination of irinotecan and 500 mg amlexanox daily with two amlexanox 250 mg tablets, prepared in Example 3, taken twice daily orally to provide a daily dose of […] of amlexanox. Irinotecan was administered to all of the patients at a dose of 350 mg/m^2 once every 3 weeks intravenously during the course of this study. […] In addition, in each of the treated patients, duration of overall response, time to overall response, duration of progression-free survival, overall clinical benefit rate, overall survival rate and quality of life are determined. […] The patients are evaluated by standard WHO and/or RECIST criteria for response and disease status at six week intervals. […] All of the patients during the evaluation period are evaluated by the measurement of the tumors, survival and determination of any progression of the disease in the patient. Stability is measured during each evaluation to determine if there is any increase in the size and amount of tumors from the proceeding period and if there is no subsequent appearance of any other malignancies in the patient. […]

B16F10/DX cells = test: B16 experimental metastasis model (Example 26); format: in vivo, mouse; conditions: B16F10/DX i.v. in C57BL/6 mice; Amlexanox 100 mg/kg daily p.o.; mean±SEM
Description: Amlexanox solution for injections was prepared according to the Example 4. B16F10/DX cell (2.0×10^5 cells per animal) were inoculated intravenously in female C57BL//6 mice (6-7 weeks old) and animals were then divided randomly into 4 groups (n=9 except for control group): 1) intact control (n=12, saline); 2) Amlexanox (100 mg/kg, daily p.o. administration); 3) TPT (2.0 mg/kg i.v. administration on day 1, 4, and 7); 5) Amlexanox (daily p.o. 100 mg/kg)+TPT (i.v. 2.0 mg/kg on day 1, 4, and 7). Intact control received oral administration with 10 ml/kg (volume/body weight) of saline, while Amlexanox was administrated orally and daily with a dose of 100 mg/kg in a volume of 10 ml/kg. The treatments were started from the day following the tumor cell implantation until the end of the protocol. However, TPT was administrated intravenously only on day 1, 4, and 7 after tumor implantation. The animal body weight was recorded as an index of treatment toxicity during the experiment.
The data in Table show metastasis formation in the lung in the mice implanted with B16F10/DX cells. The data are expressed as mean±SEM for the number of metastatic sites on the lung surface.

CSML100 cells = test: Spontaneous metastasis model in mice (Example 27); format: in vivo, mouse
Description: Amlexanox solution for injections was prepared according to the Example 4. CSML100 cells (2.0×10^6 cells per animal) were inoculated subcutaneously to female A/J mice (6-7 weeks old). The animals were then divided randomly into 2 groups (n=9): Intact control (saline) and Amlexanox treated (100 mg/kg, daily i.v. injection for 10 consecutive days). The treatment started from the day following the tumor implantation. The measurement of tumor size was performed since day 11. On day 24, the tumors were surgically removed. The lung metastasis development was analyzed 40 days after the tumor resection.
The data in Table show spontaneous lung metastasis formation in this tumor model. The data are expressed as mean±SEM for the number of metastatic sites on the lung surface.

CC(C)c1ccc2oc3nc(N)c(C(=O)O)cc3c(=O)c2c1 [Amlexanox, 2-amino-7-isopropyl-1-azaxanthone-3-carboxylic acid]
percentage of patients with no progression of the disease by WHO and/or RECIST criteria, compared to the non-treated group [1]: greater percentage of the patients in the group of patients treated with the amlexanox show no progression of the disease
percentage of patients with beneficial results (overall response rate, progression-free survival, overall survival etc.) (colorectal cancer): greater percentage of the patients in the group of patients treated with the amlexanox show beneficial results
Lung Metastasis Number per Animal (B16F10/DX cells): 71.3 ± 15.5
Lung metastasis number 40 days after s.c. tumor resection (CSML100 cells; CSML100 s.c. in A/J mice, 100 mg/kg i.v. daily for 10 days, tumors removed day 24, mean±SEM, one animal (26 metastases) excluded): 1.00 ± 0.55
Subcutaneous tumor size on day 14 (CSML100 cells; CSML100 s.c. in A/J mice, 100 mg/kg i.v. daily injection for 10 days): 0.05 ± 0.02 g
Trial/control × 100% (CSML100 cells; lung metastasis number 40 days after s.c. tumor resection, 100 mg/kg i.v. daily for 10 days): 96.3%
